Laboratory results from US20250171459A1, “2-METHYL-4',5'-DIHYDROSPIRO[PIPERIDINE-4,7'-THIENO[2,3-C]PYRAN] DERIVATIVES AS INHIBITORS OF APOL1 AND METHODS OF USING SAME” (Vertex Pharmaceuticals Incorporated, priority 2022, published 2025).

Biological target: T1, APOL1 (Homo sapiens, UniProt O14791)
T1 sequence (O14791 1-398 S342G/I384M): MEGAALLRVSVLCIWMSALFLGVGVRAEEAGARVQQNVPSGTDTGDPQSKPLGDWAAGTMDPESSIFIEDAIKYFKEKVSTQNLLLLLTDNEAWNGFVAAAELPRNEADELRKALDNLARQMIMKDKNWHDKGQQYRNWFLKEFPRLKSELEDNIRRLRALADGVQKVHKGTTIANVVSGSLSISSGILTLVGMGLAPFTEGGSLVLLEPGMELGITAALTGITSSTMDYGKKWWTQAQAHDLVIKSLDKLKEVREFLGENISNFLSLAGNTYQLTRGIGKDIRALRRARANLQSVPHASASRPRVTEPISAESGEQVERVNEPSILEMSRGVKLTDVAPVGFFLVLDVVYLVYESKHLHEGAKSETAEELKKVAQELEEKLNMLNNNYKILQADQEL
Assay: MultiTox-Fluor Multiplex Cytotoxicity Assay in tet-inducible APOL1 T-REx-HEK293 cells (cell rescue, ratio of dead to live cells)
Type: cell-based
Conditions: tet-inducible transgenic APOL1 T-REx-HEK293 cell lines, 50 ng/mL tet, 24 hours; read-out: IP50 (i.e., IC50 for cell proliferation)
Method in brief: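 T-REx-HEK293 cells with tet-inducible APOL1 were treated with compound (10 μM top, 10-point 3-fold dilution, duplicate) plus 50 ng/mL tetracycline for 24 h at 37° C, in DMEM with 2% tet-free FBS. MultiTox-Fluor protease signals gave a dead/live ratio, normalized to no tet (100% viability) and tet alone (0%).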

CCc1cc2c(s1)CCO[C@@]21CCN(C[C@H]2C[C@@H](NS(=O)(=O)c3cccc(C)c3)C2)[C@@H](C)C1 [Compound 406] and CCc1cc2c(s1)CCO[C@@]21CCN(C[C@H]2C[C@@H](NS(=O)(=O)c3ccccc3F)C2)[C@@H](C)C1 [Compound 408] cannot be ordered by IC50: under 100 nM for the first, under 100 nM for the second.

First: Cc1cccc(CN2CC[C@]3(C[C@@H]2C)OCCc2c3sc(Cl)c2CO)n1 [Compound 739]
Second: C[C@H]1C[C@@]2(CCN1Cc1cnn(CC(C)(O)CO)c1)OCCc1c2sc(C(F)(F)F)c1CO (stereo partly shown) [Compound 936]
The IC50 of the first is higher: 500 to 1000 nM for the first, under 100 nM for the second. The second is the more potent here.

C[C@H]1C[C@@]2(CCN1Cc1cnn(C[C@@H](O)C(=O)N(C)C)c1)OC[C@@H](O)c1cc(C(F)(F)F)sc12 [Compound 994] and C[C@H]1C[C@@]2(CCN1Cc1cnn(CCS(C)(=O)=O)c1)OCC(O)c1cc(C(F)(F)C(F)F)sc12 (single isomer, unassigned) [Compound 1014, (2′S, 7R)-2′-methyl-1′-[[1-(2-methylsulfonylethyl)pyrazol-4-yl]methyl]-2-(1,1,2,2-tetrafluoroethyl)spiro[4,5-dihydrothieno[2,3-c]pyran-7,4′-piperidine]-4-ol] cannot be ordered by IC50: under 100 nM for the first, under 100 nM for the second.

CCc1cc2c(s1)CCO[C@@]21CCN(Cc2cn(Cc3cnco3)nn2)[C@@H](C)C1 [Compound 34] and CCc1cc2c(s1)CCO[C@@]21CCN(Cc2cn(Cc3cn(C)nn3)nn2)[C@@H](C)C1 [Compound 179] cannot be ordered by IC50: under 100 nM for the first, under 100 nM for the second.

First: C[C@H]1C[C@@]2(CCN1C1CCCC1O)OCCc1cc(C(F)(F)F)sc12 (stereo partly drawn) [Compound 865, 2-[(2′S,7R)-2′-methyl-2-(trifluoromethyl)spiro[4,5-dihydrothieno[2,3-c]pyran-7,4′-piperidine]-1′-yl]cyclopentanol]
Second: Cc1cc2c(s1)[C@]1(CCN(Cc3cn[nH]c3)[C@@H](C)C1)OCC2 [Compound 1024, (2′S, 7R)-2,2′-dimethyl-1′-(1H-pyrazol-4-ylmethyl)spiro[4,5-dihydrothieno[2,3-c]pyran-7,4′-piperidine]]
The IC50 of the first is higher: 100 to 500 nM for the first, under 100 nM for the second.

C[C@H]1CC2(CCN1Cc1cnn(CCS(C)(=O)=O)c1)OCC1(CC1)c1cc(Cl)sc12 (stereo partly shown) [Compound 1022, (2″S)-2′-chloro-2″-methyl-1″-((1-(2-(methylsulfonyl)ethyl)-1H-pyrazol-4-yl)methyl)-5′H-dispiro[cyclopropane-1,4′-thieno[2,3-c]pyran-7′,4″-piperidine]] and CO[C@]1(C(F)F)CO[C@@]2(CCN(Cc3cnn(CCS(C)(=O)=O)c3)[C@@H](C)C2)c2sc(Cl)cc21 [Compound 835] cannot be ordered by IC50: under 100 nM for the first, under 100 nM for the second.

First: C[C@H]1C[C@@]2(CCN1Cc1cn(CCS(C)(=O)=O)nn1)OCC(=O)c1cc(Cl)sc12 [Compound 822, (2S,4R)-2′-chloro-2-methyl-1-[[1-(2-methylsulfonylethyl)triazol-4-yl]methyl]spiro[piperidine-4,7′-thieno[2,3-c]pyran]-4′-one]
Second: CC1COC2(CCN(Cc3cn(CCS(C)(=O)=O)nn3)[C@@H](C)C2)c2cc(Cl)sc21 (stereo partly shown) [Compound 540]
The IC50 of the first is higher: 100 to 500 nM for the first, under 100 nM for the second. The second is the more potent here.

First: C[C@H]1C[C@@]2(CCN1C[C@@H](O)C(N)=O)OCCc1cc(Cl)sc12 [Compound 709, (2R)-3-[(2′S, 7R)-2-chloro-2′-methyl-spiro[4,5-dihydrothieno[2,3-c]pyran-7,4′-piperidine]-1′-yl]-2-hydroxy-propanamide]
Second: C#CCN1CC[C@]2(C[C@@H]1C)OCCc1cc(Cl)sc12 [Compound 625, (2′S, 7R)-2-chloro-2′-methyl-1′-prop-2-ynyl-spiro[4,5-dihydrothieno[2,3-c]pyran-7,4′-piperidine]]
The IC50 of the first is lower: 100 to 500 nM for the first, 500 to 1000 nM for the second.

Compared with CCc1cc2c(s1)CCO[C@@]21CCN(CC2CN(S(=O)(=O)C3CCOCC3)C2)[C@@H](C)C1 [Compound 494], CCc1cc2c(s1)CCO[C@@]21CCN(CC2CN(C(=O)OC)C2)[C@@H](C)C1 [Compound 424, methyl 3-[[(2′S,4R)-2-ethyl-2′-methyl-spiro[6,7-dihydrothieno[3,2-c]pyran-4,4′-piperidine]-1′-yl]methyl]azetidine-1-carboxylate] is higher in IC50: 100 to 500 nM for the first, 500 to 1000 nM for the second.

Compared with Cc1nc(CN2CC[C@]3(C[C@@H]2C)OCCc2cc(CC(F)F)sc23)c(C)o1 [Compound 618], C[C@H]1C[C@@]2(CCN1Cc1cn(C)cn1)OCCc1cc(CC(F)F)sc12 [Compound 573] is lower in IC50: 500 to 1000 nM for the first, 100 to 500 nM for the second.

First: C[C@H]1C[C@@]2(CCN1Cc1cnn(CC3(C)COC3)c1)OCCc1c2sc(C(F)(F)F)c1CO [Compound 910]
Second: C[C@H]1C[C@@]2(CCN1Cc1cnn(CC(=O)NCC(F)F)c1)OCCc1c2sc(C(F)(F)F)c1CO [Compound 913]
The IC50 of the first is higher: 100 to 500 nM for the first, under 100 nM for the second.

CC(O)CN1CC[C@]2(C[C@@H]1C)OCCc1cc(CC(F)F)sc12 (stereo partly drawn) [Compound 613, 1-((2S,4R)-2′-(2,2-difluoroethyl)-2-methyl-4′,5′-dihydrospiro[piperidine-4,7′-thieno[2,3-c]pyran]-1-yl)propan-2-ol] and CC(C)Cn1cc(CN2CC[C@]3(C[C@@H]2C)OCCc2cc(Cl)sc23)cn1 [Compound 704] fall in the same range of IC50: 100 to 500 nM for the first, 100 to 500 nM for the second.

First: CCc1cc2c(s1)CCO[C@]21CCN(Cc2cnn(CCS(C)(=O)=O)c2)[C@@H](C)C1 [Compound 271]
Second: CCc1cc2c(s1)CCO[C@@]21CCN(Cc2cn(CCS(C)(=O)=O)nn2)[C@H](C)C1 [Compound 9, (2′R,4R)-2-ethyl-2′-methyl-1′-[[1-(2-methylsulfonylethyl)triazol-4-yl]methyl]spiro[6,7-dihydrothieno[3,2-c]pyran-4,4′-piperidine]]
The IC50 of the first is lower: under 100 nM for the first, 500 to 1000 nM for the second.

Compared with CCOC(=O)N[C@H]1C[C@@H](CN2CC[C@]3(C[C@@H]2C)OCCc2sc(CC)cc23)C1 [Compound 375], CCc1cc2c(s1)CCO[C@@]21CCN(C[C@H]2C[C@H](N)C2)[C@@H](C)C1 [Compound 419, 3-[[(2′S,4R)-2-ethyl-2′-methyl-spiro[6,7-dihydrothieno[3,2-c]pyran-4,4′-piperidine]-1′-yl]methyl]cyclobutanamine] is higher in IC50: under 100 nM for the first, 500 to 1000 nM for the second. The first is the more potent here.

COCCn1cc(CN2CC[C@]3(C[C@@H]2C)OCCc2cc(Cl)sc23)cn1 [Compound 699, (2S,7R)-2′-chloro-1-((1-(2-methoxyethyl)-1H-pyrazol-4-yl)methyl)-2-methyl-4′,5′-dihydrospiro[piperidine-4,7′-thieno[2,3-c]pyran]] and CCn1cc(CN2CC[C@]3(C[C@@H]2C)OCCc2cc(Cl)sc23)cn1 [Compound 702] cannot be ordered by IC50: under 100 nM for the first, under 100 nM for the second.

First: Cc1ncccc1CN1CC[C@]2(C[C@@H]1C)OC[C@H](O)c1cc(Cl)sc12 [Compound 770]
Second: C[C@H]1C[C@@]2(CCN1Cc1ccc(O)nc1)OC[C@H](O)c1cc(Cl)sc12 [Compound 791]
The IC50 of the first is higher: 100 to 500 nM for the first, under 100 nM for the second. The second is the more potent here.

CCc1cc2c(s1)CCO[C@@]21CCN(CC2CN(C(=O)c3ncccc3O)C2)[C@@H](C)C1 [Compound 423, [3-[[(2′S,4R)-2-ethyl-2′-methyl-spiro[6,7-dihydrothieno[3,2-c]pyran-4,4′-piperidine]-1′-yl]methyl]azetidin-1-yl]-(3-hydroxy-2-pyridyl)methanone] and CCc1cc2c(s1)CCO[C@@]21CCN(CC2CN(C(=O)c3nonc3C)C2)[C@@H](C)C1 [Compound 426] cannot be ordered by IC50: under 100 nM for the first, under 100 nM for the second.

First: CCc1cc2c(s1)CCO[C@@]21CCN(C[C@H]2C[C@@H](NC(=O)c3ccc(C)nn3)C2)[C@@H](C)C1 [Compound 328]
Second: CCc1cc2c(s1)CCO[C@@]21CCN(C[C@H]2C[C@@H](NC(=O)C(O)C3CC3)C2)[C@@H](C)C1 (stereo partly shown) [Compound 333]
The IC50 of the first is higher: 100 to 500 nM for the first, under 100 nM for the second. The second is the more potent here.

CCc1cc2c(s1)CCO[C@@]21CCN(Cc2cn(CCNC(=O)c3cnc(C)cn3)nn2)[C@@H](C)C1 [Compound 50] and CCc1cc2c(s1)CCOC21CCN(Cc2cn(CC(O)CS(C)(=O)=O)nn2)C(C)C1 (stereo not shown) [Compound 91] cannot be ordered by IC50: under 100 nM for the first, under 100 nM for the second.

CCc1cc2c(s1)CCOC21CCN(Cc2cn(Cc3cc(COC)[nH]n3)nn2)CC1 [Compound 1108] and CCc1cc2c(s1)CCOC21CCN(Cc2ccc(S(C)(=O)=O)cc2)CC1 [Compound 1148] fall in the same range of IC50: 500 to 1000 nM for the first, 500 to 1000 nM for the second.

First: CCc1cc2c(s1)CCOC21CCN(CC2CC2)CC1 [Compound 1155]
Second: CCc1cc2c(s1)CCOC21CCN(Cc2ccc(NCC3CCOCC3)nc2)CC1 [Compound 1068]
The IC50 of the first is higher: 500 to 1000 nM for the first, under 100 nM for the second. The second is the more potent here.

First: CCc1cc2c(s1)CCO[C@@]21CCN(Cc2cn(C3CCCN(S(C)(=O)=O)C3)nn2)[C@@H](C)C1 (stereo partly shown) [Compound 28]
Second: CC1COC2(CCN(Cc3cn(CCS(C)(=O)=O)nn3)[C@@H](C)C2)c2cc(Cl)sc21 (stereo partly shown) [Compound 536]
The IC50 of the first is higher: 100 to 500 nM for the first, under 100 nM for the second.

Compared with CCc1cc2c(s1)CCO[C@@]21CCN(CC(O)c2ccc(F)c(F)c2)[C@@H](C)C1 (stereo partly shown) [Compound 253], CCc1cc2c(s1)CCO[C@@]21CCN(Cc2ccc(NC(C)(C)CO)nc2)[C@@H](C)C1 [Compound 228] is lower in IC50: 100 to 500 nM for the first, under 100 nM for the second.

Compared with C[C@H]1C[C@@]2(CCN1Cc1cnn(CCS(C)(=O)=O)c1)OCCc1cc(C3CC3)sc12 [Compound 1034, (2′S, 7R)-2-cyclopropyl-2′-methyl-1′-[[1-(2-methylsulfonylethyl)pyrazol-4-yl]methyl]spiro[4,5-dihydrothieno[2,3-c]pyran-7,4′-piperidine]], CCc1cc2c(s1)CCO[C@@]21CCN(C[C@H]2C[C@@H](NS(=O)(=O)CCC3NC(=O)NC3=O)C2)[C@@H](C)C1 (stereo partly shown) [Compound 415] is higher in IC50: under 100 nM for the first, 100 to 500 nM for the second. The first is the more potent here.

In the case of Cc1cncc(N2CCC(CN3CC[C@]4(C[C@@H]3C)OC[C@H](O)c3cc(Cl)sc34)CC2)n1 [Compound 816], the IC50 is reported as 500 to 1000 nM.
